# Laboratory results taken from patent US9199983B2, “3-aryl-6-aryl-[1,2,4]triazolo[4,3-α]pyridines as inhibitors of cell proliferation and the use thereof” (priority 2010, dated 2015).
# Structures can show the parent of a compound that is named as a salt.
# Experiments:
# [1] = tested on: Human lung cancer cell line A549; assay: MTT cancer cell cytotoxicity assay, A549; type: cell-based; details: Homo sapiens, A549 cells, 48-72 h
# Description: (§1) Identification of 3-(2-methoxyphenyl)-6-(4-methoxyphenyl)-[1,2,4]triazolo[4,3-a]pyridine and analogs as inhibitors of cell proliferation that were evaluated with standard MTT cancer cell cytotoxicity assay (IC50)
# (§2) Human lung cancer cell line A549, breast cancer cell line T47D, liver cancer cell lines HepG2 and SMMC7721 as well as a mouse melanoma cell line B16F10 were used in the study. The cells were cultured in corresponding growth media recommended by American Type Culture Collection (ATCC) with the supplementation of penicillin G (100 U/ml)/streptomycin (100 µg/ml), and 10% fetal bovine serum (Hangzhou Sijiqing Biological Engineering Materials, Co., Ltd. China) at 37° C. in a humidified atmosphere containing 5% CO2. Cells at about 80% confluency were harvested by trypsinization. Cells were centrifuged, re-suspended in fresh growth media and counted. Corresponding numbers of cells were seeded to 96-well cell culture plates (HepG2 cell, T-47D and A549 cells at 3000 cells/well, SMMC-7721 cells at 5000 cells/well and B16F10 cells at 2000 cells/well) in a total volume of […]. Cells were incubated in CO2 incubator over night to allow the cells to attach. In next day, […] of medium containing testing (from 10 μM to 1 nM) or reference compounds was added to each well of the cells. Media without compound were used as 100% control. Cells were treated with each concentration of compounds in triplicates to ensure data accuracy. Cells were incubated with compounds in CO2 incubator for an additional 48-72 h at 37° C. After incubation, cells were removed from the CO2 incubator and […] of 5 mg/ml MTT (3-(4,5-dimethylthiazole-2-yl)-2,5-diphenyltetrazoliumbromide, Sigma) solution in PBS was added to each well. Cells were returned to CO2 incubator and incubated for additional 4 h. After the incubation, media were removed by aspiration and […] DMSO was added to each well. Plates were sealed with aluminum foil and shaked mildly on an orbital shaker for 10 min at room temperature. The absorption was measured at 550 nm with a plate reader (Varioskan Flash, Thermo Fisher Scientific) with 660 nm reading used as background control. The relative absorbance readings were calculated by subtracting readings at 660 nm from that at 550 nm. The relative absorbance was plotted again the concentrations of the testing compounds and the plots were fitted with a one-site lg(IC50) equation using Prism 5 software (GraphPad Software, Inc). The equation used in the curve fitting is as follows: relative absorbance reading=background reading+(maximal reading−brackground reading)/(1+10 ^(compound concentration-log IC50)). The background reading used in the calculation was obtained with 100% cell death using a reference anticancer drug, whereas the maximal reading was obtained in the well with no added compound. The IC50 value calculated from the equation represents the cytotoxic potency of a particular compound.
# [2] = tested on: breast cancer cell line T47D; assay: MTT cancer cell cytotoxicity assay, T47D; type: cell-based, human; details: Homo sapiens, T47D cells, 48-72 h
# Description: as §1, §2
# [3] = tested on: liver cancer cell line HepG2; assay: MTT cancer cell cytotoxicity assay, HepG2; type: cell-based, human; details: Homo sapiens, HepG2 cells, 48-72 h
# Description: as §1, §2
# [4] = tested on: liver cancer cell line SMMC7721; assay: MTT cancer cell cytotoxicity assay, SMMC7721; type: cell-based, human; details: Homo sapiens, SMMC-7721, SMMC7721 cells, 48-72 h
# Description: as §1, §2
smiles,measurement,setting,value
"COc1ccccc1-c1nnc2ccc(-c3cccc(O)c3)cn12 [Example 12, 6-(3-Hydroxyphenyl)-3-(2-methoxyphenyl)-[1,2,4]triazolo[4,3-a]pyridine]",IC50,[1],7180 nM
same,IC50,[2],> 10000 nM
same,IC50,[3],2950 nM
same,IC50,[4],> 10000 nM
"COc1ccccc1-c1nnc2ccc(-c3ccc(C)c([N+](=O)[O-])c3)cn12 [Example 10, 3-(2-Methoxyphenyl)-6-(4-methyl-3-nitrophenyl)-[1,2,4]triazolo[4,3-a]pyridine]",IC50,[1],> 10000 nM
same,IC50,[2],1370 nM
same,IC50,[3],382 nM
same,IC50,[4],618 nM
"COc1ccc(-c2ccc3nnc(-c4cccnc4Cl)n3c2)cc1 [Example 85, 3-(2-Chloropyridin-3-yl)-6-(4-methoxyphenyl)-[1,2,4]triazolo[4,3-a]pyridine]",IC50,[1],> 10000 nM
same,IC50,[2],4340 nM
same,IC50,[3],3870 nM
same,IC50,[4],1890 nM
"CCOc1ccccc1-c1nnc2ccc(-c3ccc(OC)cc3)cn12 [Example 74, 3-(2-Ethoxyphenyl)-6-(4-methoxyphenyl)-[1,2,4]triazolo[4,3-a]pyridine]",IC50,[1],146 nM
same,IC50,[2],151 nM
same,IC50,[3],141 nM
same,IC50,[4],38 nM
"COc1ccccc1-c1nnc2ccc(-c3ccc(C)cc3C)cn12 [Example 25, 6-(2,4-Dimethylphenyl)-3-(2-methoxyphenyl)-[1,2,4]triazolo[4,3-a]pyridine]",IC50,[1],725 nM
same,IC50,[2],415 nM
same,IC50,[3],724 nM
same,IC50,[4],114 nM
"COc1ccccc1-c1nnc2ccc(-c3ccc(C)c(Cl)c3)cn12 [Example 19, 6-(3-Chloro-4-methylphenyl)-3-(2-methoxyphenyl)-[1,2,4]triazolo[4,3-a]pyridine]",IC50,[1],221 nM
same,IC50,[2],169 nM
same,IC50,[3],157 nM
same,IC50,[4],68 nM
"COc1ccc(-c2cc(C)c3nnc(-c4ccccc4OC)n3c2)cc1 [Example 55, 3-(2-Methoxyphenyl)-6-(4-methoxyphenyl)-8-methyl-[1,2,4]triazolo[4,3-a]pyridine]",IC50,[1],122 nM
same,IC50,[2],260 nM
same,IC50,[3],88 nM
same,IC50,[4],58 nM
"COc1ccc(-c2ccc3nnc(-c4ccccc4)n3c2)cc1 [Example 68, 6-(4-Methoxyphenyl)-3-phenyl-[1,2,4]triazolo[4,3-a]pyridine]",IC50,[1],7750 nM
same,IC50,[2],2940 nM
same,IC50,[3],5030 nM
same,IC50,[4],755 nM
"COc1ccccc1-c1nnc2ccc(-c3ccc(C)cc3F)cn12 [Example 4, 6-(2-Fluoro-4-methylphenyl)-3-(2-methoxyphenyl)-[1,2,4]triazolo[4,3-a]pyridine]",IC50,[1],276 nM
same,IC50,[2],326 nM
same,IC50,[3],246 nM
same,IC50,[4],80 nM
"COc1ccc(-c2ccc3nnc(-c4c(OC)cccc4OC)n3c2)cc1 [Example 61, 3-(2,6-Dimethoxyphenyl)-6-(4-methoxyphenyl)-[1,2,4]triazolo[4,3-a]pyridine]",IC50,[1],2560 nM
same,IC50,[2],2920 nM
same,IC50,[3],949 nM
same,IC50,[4],258 nM
"COc1ccc(-c2ccc3nnc(-c4ccccc4OC(F)(F)F)n3c2)cc1 [Example 67, 6-(4-Methoxyphenyl)-3-(2-trifluoromethoxyphenyl)-[1,2,4]triazolo[4,3-a]pyridine]",IC50,[1],471 nM
same,IC50,[2],328 nM
same,IC50,[3],910 nM
same,IC50,[4],105 nM
"COc1ccccc1-c1nnc2ccc(-c3cccc(C)c3)cn12 [Example 23, 3-(2-Methoxyphenyl)-6-(3-methylphenyl)-[1,2,4]triazolo[4,3-a]pyridine]",IC50,[1],215 nM
same,IC50,[2],134 nM
same,IC50,[3],180 nM
same,IC50,[4],76 nM
"CCOc1ccc(-c2ccc3nnc(-c4ccccc4OC)n3c2)cc1C [Example 16, 6-(4-Ethoxy-3-methylphenyl)-3-(2-methoxyphenyl)-[1,2,4]triazolo[4,3-a]pyridine]",IC50,[1],160 nM
same,IC50,[2],152 nM
same,IC50,[3],107 nM
same,IC50,[4],33 nM
"COc1cc(-c2ccc3nnc(-c4ccccc4OC)n3c2)ccc1N [Example 43, 6-(4-Amino-3-methoxyphenyl)-3-(2-methoxyphenyl)-[1,2,4]triazolo[4,3-a]pyridine]",IC50,[1],> 10000 nM
same,IC50,[2],2250 nM
same,IC50,[3],1640 nM
same,IC50,[4],2200 nM
"COc1ccc(-c2ccc3nnc(-c4cccc(OC)c4OC)n3c2)cc1 [Example 73, 3-(2,3-Dimethoxyphenyl)-6-(4-methoxyphenyl)-[1,2,4]triazolo[4,3-a]pyridine]",IC50,[1],> 10000 nM
same,IC50,[2],5320 nM
same,IC50,[3],2350 nM
same,IC50,[4],3210 nM
"COc1cc(-c2ccc3nnc(-c4ccccc4OC)n3c2)ccc1C [Example 28, 6-(3-Methoxy-4-methylphenyl)-3-(2-methoxyphenyl)-[1,2,4]triazolo[4,3-a]pyridine]",IC50,[1],886 nM
same,IC50,[2],495 nM
same,IC50,[3],448 nM
same,IC50,[4],178 nM
"COc1ccc(-c2ccc3nnc(-c4cc(S(N)(=O)=O)ccc4OC)n3c2)cc1 [Example 75, 6-(4-Methoxyphenyl)-3-(2-methoxy-5-sulfamoylphenyl)-[1,2,4]triazolo[4,3-a]pyridine]",IC50,[1],> 10000 nM
same,IC50,[2],> 10000 nM
same,IC50,[3],> 10000 nM
same,IC50,[4],> 10000 nM
"COc1ccccc1-c1nnc2ccc(-c3ccc(N)cc3)cn12 [Example 47, 6-(4-Aminophenyl)-3-(2-methoxyphenyl)-[1,2,4]triazolo[4,3-a]pyridine hydrochloride]",IC50,[1],1050 nM
same,IC50,[2],189 nM
same,IC50,[3],717 nM
same,IC50,[4],365 nM
"COc1ccccc1-c1nnc2ccc(-c3cccc(N)c3)cn12 [Example 45, 6-(3-Aminophenyl)-3-(2-methoxyphenyl)-[1,2,4]triazolo[4,3-a]pyridine hydrochloride]",IC50,[1],2930 nM
same,IC50,[2],678 nM
same,IC50,[3],1250 nM
same,IC50,[4],829 nM
"COc1cc(-c2ccc3nnc(-c4ccccc4OC)n3c2)ccc1OCc1ccccc1 [Example 9, 6-(4-Benzyloxy-3-methoxyphenyl)-3-(2-methoxyphenyl)-[1,2,4]triazolo[4,3-a]pyridine]",IC50,[1],> 10000 nM
same,IC50,[2],> 10000 nM
same,IC50,[3],> 10000 nM
same,IC50,[4],> 10000 nM
"COc1ccc(-c2ccc3nnc(-c4ccccc4OC)n3c2)c(OC)c1 [Example 36, 6-(2,4-Dimethoxyphenyl)-3-(2-methoxyphenyl)-[1,2,4]triazolo[4,3-a]pyridine]",IC50,[1],74 nM
same,IC50,[2],315 nM
same,IC50,[3],78 nM
same,IC50,[4],29 nM
"COc1ccc(-c2ccc3nnc(-c4ccccc4C)n3c2)cc1 [Example 78, 6-(4-Methoxyphenyl)-3-(2-methylphenyl)-[1,2,4]triazolo[4,3-a]pyridine]",IC50,[1],610 nM
same,IC50,[2],129 nM
same,IC50,[3],264 nM
same,IC50,[4],109 nM
"COc1ccccc1-c1nnc2ccc(-c3ccc(OCc4ccccc4)c(C)c3)cn12 [Example 37, 6-(4-Benzyloxy-3-methylphenyl)-3-(2-methoxyphenyl)-[1,2,4]triazolo[4,3-a]pyridine]",IC50,[1],7120 nM
same,IC50,[2],9340 nM
same,IC50,[3],3560 nM
same,IC50,[4],3340 nM
"COc1ccccc1-c1nnc2ccc(-c3cc(C)c(OC)c(C)c3)cn12 [Example 30, 6-(3,5-Dimethyl-4-methoxyphenyl)-3-(2-methoxyphenyl)-[1,2,4]triazolo[4,3-a]pyridine]",IC50,[1],> 10000 nM
same,IC50,[2],5160 nM
same,IC50,[3],2370 nM
same,IC50,[4],1760 nM
"COc1ccccc1-c1nnc2ccc(-c3ccc(C)c(C)c3)cn12 [Example 32, 6-(3,4-Dimethylphenyl)-3-(2-methoxyphenyl)-[1,2,4]triazolo[4,3-a]pyridine]",IC50,[1],157 nM
same,IC50,[2],148 nM
same,IC50,[3],83 nM
same,IC50,[4],39 nM
"COc1ccccc1-c1nnc2ccc(-c3ccc([N+](=O)[O-])c(OC)c3)cn12 [Example 21, 6-(3-Methoxy-4-nitrophenyl)-3-(2-methoxyphenyl)-[1,2,4]triazolo[4,3-a]pyridine]",IC50,[1],> 10000 nM
same,IC50,[2],> 10000 nM
same,IC50,[3],4250 nM
same,IC50,[4],> 10000 nM
"COc1ccccc1-c1nnc2ccc(-c3ccc(C)c(N)c3)cn12 [Example 44, 6-(3-Amino-4-methylphenyl)-3-(2-methoxyphenyl)-[1,2,4]triazolo[4,3-a]pyridine]",IC50,[1],54 nM
same,IC50,[2],48 nM
same,IC50,[3],29 nM
same,IC50,[4],20 nM
